Experimental data published in PubChem BioAssay (NCI).
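Results reflect a 48-hour exposure of cells in 96-well plates to compound at five concentrations. GI50 marks 50% less growth. TGI: total growth inhibition.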

Experiments:
Assay in all cases: NCI tumour cell line growth inhibition, 48 h
A549 NSCLC = tested on: A549 NSCLC
T-47D breast = tested on: T-47D breast
KM12 colon = tested on: KM12 colon
ACHN renal = tested on: ACHN renal
SN12C renal = tested on: SN12C renal
HCT-116 colon = tested on: HCT-116 colon
BT-549 breast = tested on: BT-549 breast
SNB-75 CNS = tested on: SNB-75 CNS
RXF 393 renal = tested on: RXF 393 renal
CAKI-1 renal = tested on: CAKI-1 renal
HOP-92 NSCLC = tested on: HOP-92 NSCLC

SMILES	TGI (A549 NSCLC)	TGI (T-47D breast)	TGI (KM12 colon)	TGI (ACHN renal)	TGI (SN12C renal)	TGI (HCT-116 colon)	TGI (BT-549 breast)	TGI (SNB-75 CNS)	TGI (RXF 393 renal)	TGI (CAKI-1 renal)	TGI (HOP-92 NSCLC)	GI50 (A549 NSCLC)	GI50 (SN12C renal)	GI50 (HOP-92 NSCLC)	GI50 (HCT-116 colon)	GI50 (RXF 393 renal)	GI50 (CAKI-1 renal)	GI50 (KM12 colon)	GI50 (SNB-75 CNS)
Nc1ncnc2c1ncn2[C@@H]1C[C@@H]1CO	> 100 µM	> 100 µM	> 100 µM	> 100 µM	> 100 µM	> 100 µM	> 100 µM	–	–	–	–	–	–	–	–	–	–	–	–
Nc1nc(SC/C=C/c2ccccc2)c2[nH]cnc2n1	> 100 µM	> 100 µM	> 100 µM	> 100 µM	> 100 µM	> 100 µM	> 100 µM	> 100 µM	> 100 µM	> 100 µM	–	–	–	–	–	–	–	–	–
COc1ccc(-[n+]2nc(S(=O)(=O)O)c(/C=C/c3ccc(N(C)C)cc3)cc2C#N)cc1	> 100 µM	> 100 µM	> 100 µM	> 100 µM	> 100 µM	> 100 µM	> 100 µM	> 100 µM	–	> 100 µM	> 100 µM	–	–	–	–	–	–	–	–
CCC(/C=C/C1OC(=O)C=CC1C)=C\C(C)C/C=C/C(C)=C/C(C)C(=O)C(C)C(O)C(C)C/C(C)=C/C(=O)O (stereo not given)	3.96 µM	–	–	–	12 µM	–	–	7.17 µM	3.56 µM	–	–	0.0164 nM	0.0696 nM	5.32 µM	< 1 pM	< 1 pM	< 0.001 nM	–	–
CC(CO)(CO)N1C(=O)C2C3C=CC(C3)C2C1=O (stereo not given)	> 100 µM	> 100 µM	> 100 µM	> 100 µM	> 100 µM	> 100 µM	–	> 100 µM	> 100 µM	> 100 µM	> 100 µM	–	–	–	–	–	–	–	–
O=C(O)C(NCc1ccccc1)C(NCc1ccccc1)C(=O)O (stereo not given)	> 100 µM	> 100 µM	> 100 µM	> 100 µM	> 100 µM	> 100 µM	> 100 µM	> 100 µM	–	> 100 µM	> 100 µM	–	–	–	–	–	–	–	–
O=C1C(c2c(O)[nH]c3ccc(F)cc23)=Nc2ccccc21	> 100 µM	–	> 100 µM	> 100 µM	> 100 µM	> 100 µM	> 100 µM	15.1 µM	9.77 µM	> 100 µM	65.6 µM	–	–	–	–	–	–	–	–
COc1ccc2cc(/C=N/NC(=O)Nc3ccccc3)ccc2c1	–	> 100 µM	> 100 µM	–	> 100 µM	> 100 µM	> 100 µM	> 100 µM	–	> 100 µM	> 100 µM	–	–	–	–	–	–	–	–
COc1ccc(P2(=S)OC(C)(C)C(C)(C)O2)cc1	> 100 µM	> 100 µM	> 100 µM	> 100 µM	> 100 µM	> 100 µM	–	> 100 µM	–	> 100 µM	> 100 µM	–	–	–	–	–	–	–	–
CC(=O)Oc1ccc2c(C)cc(=O)oc2c1OC(C)=O	> 100 µM	–	> 100 µM	> 100 µM	> 100 µM	> 100 µM	–	> 100 µM	–	–	–	–	–	–	–	–	–	–	–
Cc1nc2c(nc1C)-c1[nH]c3c(c1C(=O)C2=O)CCCC3=O	16.3 µM	0.709 µM	4.43 µM	7.35 µM	3.28 µM	–	–	3.31 µM	2.41 µM	–	3.66 µM	–	–	–	–	–	–	–	–
O=c1c(/C=C/c2c(O)ccc3ccccc23)nnc2sc(-c3cccc(Br)c3)nn12	> 100 µM	37.3 µM	63.6 µM	> 100 µM	–	> 100 µM	56.7 µM	–	–	56.8 µM	–	–	–	–	–	–	–	–	–
CSc1ncnc2c1ncn2CCC(=O)OC(C)(C)C	> 100 µM	> 100 µM	> 100 µM	> 100 µM	> 100 µM	> 100 µM	–	> 100 µM	> 100 µM	> 100 µM	> 100 µM	–	–	–	–	–	–	–	–
Cc1ccc(-n2c(N)c(C#N)c3[nH]nc(N)c3c2=O)cc1	–	> 100 µM	> 100 µM	> 100 µM	–	> 100 µM	–	> 100 µM	> 100 µM	> 100 µM	> 100 µM	–	–	–	–	–	–	–	–
O=C(Nc1nc(C23CC4CC(CC(C4)C2)C3)cs1)c1cc2ccc(O)cc2oc1=O	38.3 µM	–	29.9 µM	64.3 µM	30.4 µM	25.6 µM	–	–	51.2 µM	> 100 µM	15.3 µM	–	–	–	–	–	–	–	–
C=C(C)[C@@H]1CC[C@]2(C(=O)NC3CCCCC3)CC[C@]3(C)[C@H](CC[C@@H]4[C@@]5(C)CCCNC(C)(C)[C@@H]5CC[C@]43C)[C@@H]12	–	–	3.64 µM	–	–	–	–	3.05 µM	–	2.93 µM	3.15 µM	–	–	1.55 µM	–	–	1560 nM	1.92 µM	1.48 µM
N#Cc1c(N)n(-c2cccc(C(=O)O)c2)c(=O)c2cc([N+](=O)[O-])ccc12	> 100 µM	> 100 µM	> 100 µM	> 100 µM	> 100 µM	> 100 µM	> 100 µM	> 100 µM	–	> 100 µM	> 100 µM	–	–	–	–	–	–	–	–
c1ccc(CCNc2ccccn2)nc1	> 100 µM	–	> 100 µM	> 100 µM	> 100 µM	> 100 µM	> 100 µM	–	> 100 µM	> 100 µM	> 100 µM	–	–	–	–	–	–	–	–

SMILES	TGI (A549 NSCLC)	TGI (T-47D breast)	TGI (KM12 colon)	TGI (ACHN renal)	TGI (SN12C renal)	TGI (HCT-116 colon)	TGI (BT-549 breast)	TGI (SNB-75 CNS)	TGI (RXF 393 renal)	TGI (CAKI-1 renal)	TGI (HOP-92 NSCLC)	GI50 (A549 NSCLC)	GI50 (SN12C renal)	GI50 (HOP-92 NSCLC)	GI50 (HCT-116 colon)	GI50 (RXF 393 renal)	GI50 (CAKI-1 renal)	GI50 (KM12 colon)	GI50 (SNB-75 CNS)
O=[N+]([O-])c1ccc2c(c1)C1=C(CO2)Cc2ccccc2O1	> 100 µM	> 100 µM	39.3 µM	29.9 µM	45.2 µM	30 µM	61.9 µM	> 100 µM	–	31.4 µM	81.5 µM	–	–	–	–	–	–	–	–
S=c1sc2c(Cl)nc(Cl)nc2n1-c1ccccc1	> 100 µM	–	> 100 µM	> 100 µM	> 100 µM	31.1 µM	–	> 100 µM	50.6 µM	> 100 µM	> 100 µM	–	–	–	–	–	–	–	–
CC12CC(c3ccccc3O1)C(C(=O)Nc1ccc(Cl)cc1Cl)C(=O)N2 (stereo not given)	56.8 µM	70.9 µM	> 100 µM	67.3 µM	–	> 100 µM	> 100 µM	–	–	> 100 µM	–	–	–	–	–	–	–	–	–
CCOC(=O)c1nnc2c(C(=O)OCC)c3ccccc3n2c1N	> 100 µM	> 100 µM	66.8 µM	> 100 µM	81.6 µM	> 100 µM	> 100 µM	67.3 µM	> 100 µM	> 100 µM	–	–	–	–	–	–	–	–	–
O=Cc1[nH]c(=O)[nH]c(=O)c1C(=O)O	> 100 µM	> 100 µM	> 100 µM	> 100 µM	> 100 µM	> 100 µM	–	> 100 µM	> 100 µM	> 100 µM	> 100 µM	–	–	–	–	–	–	–	–
COC(=O)C(Cc1c[nH]c2ccccc12)NP(=O)(O)OCC1OC(n2cc(I)c(=O)[nH]c2=O)CC1O (stereo not given)	> 100 µM	> 100 µM	> 100 µM	> 100 µM	> 100 µM	> 100 µM	> 100 µM	> 100 µM	–	> 100 µM	> 100 µM	–	–	–	–	–	–	–	–
O=[N+]([O-])/C(C(Cl)=C(Cl)Cl)=C(/Cl)Sc1ccccc1	13.5 µM	7.47 µM	32 µM	3.93 µM	3.55 µM	2.58 µM	–	28.8 µM	9.86 µM	6.57 µM	3.85 µM	–	–	–	–	–	–	–	–
O=C(O)CCC(NC(=O)c1ccc(Nc2nc3cc(C(F)(F)F)ccc3nc2-c2ccccc2)cc1)C(=O)O (stereo not given)	> 100 µM	–	> 100 µM	–	> 100 µM	> 100 µM	–	> 100 µM	94.8 µM	–	> 100 µM	–	–	–	–	–	–	–	–
CN(C)CCC(=O)c1ccccc1	> 82.1 µM	–	> 61.4 µM	> 69.2 µM	> 70.1 µM	55.4 µM	–	> 71 µM	61.6 µM	40.5 µM	44.6 µM	–	–	–	–	–	–	–	–
CCCNC(=S)NNC(=O)CSc1nc(-c2ccccc2)c(-c2ccccc2)[nH]1	> 100 µM	–	> 100 µM	> 100 µM	> 100 µM	> 100 µM	–	> 100 µM	–	94.6 µM	97.8 µM	–	–	–	–	–	–	–	–
Cc1ccccc1N1C(=O)C2C=CC(n3[nH]c(=O)n(Cc4ccccc4)c3=O)CC2C1=O (stereo not given)	> 100 µM	–	> 100 µM	> 100 µM	> 100 µM	> 100 µM	–	> 100 µM	> 100 µM	> 100 µM	> 100 µM	–	–	–	–	–	–	–	–
O=C(O)[C@@H]1CCS(=O)(=O)N1	> 100 µM	> 100 µM	> 100 µM	> 100 µM	> 100 µM	> 100 µM	–	–	> 100 µM	> 100 µM	–	–	–	–	–	–	–	–	–
CN=C1CC2c3cc(OC)c(OC)cc3CCN2C2=C1C(=O)CC(C)(C)C2 (stereo not given)	> 100 µM	–	> 100 µM	> 100 µM	> 100 µM	> 100 µM	–	> 100 µM	> 100 µM	> 100 µM	> 100 µM	–	–	–	–	–	–	–	–
OC1C#CCSCC#C/C=C\1 (stereo not given)	–	–	–	> 100 µM	> 100 µM	> 100 µM	> 100 µM	> 100 µM	68.1 µM	–	> 100 µM	–	–	–	–	–	–	–	–
CC(C)C(=O)OCC1OC(n2c(Br)nc3c(=O)[nH]c(N)nc32)C(OC(=O)C(C)C)C1OC(=O)C(C)C (stereo not given)	> 100 µM	> 100 µM	–	> 100 µM	> 100 µM	> 100 µM	> 100 µM	> 100 µM	–	–	> 100 µM	–	–	–	–	–	–	–	–
NNC(=O)c1n[nH]nc1C(=O)NN	> 100 µM	–	> 100 µM	–	> 100 µM	> 100 µM	29.3 µM	–	> 100 µM	32.6 µM	–	–	–	–	–	–	–	–	–
O=C1CCCC1CN1CCCC1 (stereo not given)	> 100 µM	10.8 µM	35 µM	15 µM	32.6 µM	11.7 µM	3.09 µM	31 µM	–	0.773 µM	12.6 µM	–	–	–	–	–	–	–	–
CN(CC(=O)O)c1ncc2c(n1)CCCC2	> 100 µM	–	> 100 µM	> 100 µM	> 100 µM	> 100 µM	–	> 100 µM	> 100 µM	> 100 µM	> 100 µM	–	–	–	–	–	–	–	–
